Measured values as given in US7309713B2, “Use of the non-opiate analgesic drug flupirtine for the treatment of overactive bladder and associated diseases including urge incontinence, urinary flow problems as a result of prostate hyperplasia and irritable bowel syndrome” (priority 2005, dated 2007).
“And” between values parts separate entries of the source, which are not always exact repeats. Equal values may be shown once. “Also recorded” adds a separate entry of the source. Where a name gives a salt, the structure may show the parent alone.

Columns and labels:
[1] = tested on: Randall-Selitto test in rats; details: p.o.; cited from earlier work
[2] = tested on: volume-induced rhythmic urinary bladder contractions; test: volume-induced rhythmic urinary bladder contractions in urethane anaesthetised rats (rat model of overactive bladder); format: in vivo, Sprague Dawley rat; details: for presence/absence of bladder contractions (block grade), individual animal: 55 min period, Table 3; for duration of block, individual animal / number of episodes of block per animal / decrease in frequency, individual animal: individual animals; for mean voiding frequency decreased by: decrease
Excerpt: In the search for new drugs compounds are of interest which affect the central nervous system circuits involved in micturation as well as the peripheral nerves resulting in a decrease in the frequency of the voiding reflex without any effect on bladder contractility. […] The method utilises spontaneous, volume-induced contractions of the urinary bladder in anaesthetised rats and was developed and first described by Dray (J. Pharmacol. Meth. 13:157-165, 1985) to assess the central activity of substances with opioid properties on bladder function. As this model clearly mimics the interplay between smooth muscle function and neuronal control thereof, this model can be also used to predict drug effects in a different disease, i.e. irritable bowl syndrome (IBS).
Aim of the study: To characterise the effects of the analgesic flupirtine maleate on the bladder function we used the model volume-induced contractions of urinary bladder in urethane anaesthetised rats. […] The compounds at the dose range 0.1-10 mg/kg were intraduodenally administered to anaesthetised rats. The intraduodenal route was chosen to mimic the oral route and to avoid the use of solvents necessary for intravenous administration.
• Species: Sprague Dawley rat • Sex: Female • Body weight: 200-270 g • Breeder: Charles River, Sulzfeld • Food/Tap water: pellets, ssniff M/R15, ad libitum, Spezialdiäten GmbH, Soest/Wesffalen, FRG • Conditions in animal housing: Rats were kept conventionally in groups of 6 in macrolon cages No. 4. • Room temperature: 20-24° C. • Relative humidity: 40-70%, deviations from the maximum range caused during cleaning procedure are possible • Light/Dark rhythm: 12/12 h light/dark cycle, light on at 6:00 a.m.
The food was withdrawn 16 hours before intraduodenal drug administration. Tap water was available ad libitum.
Flupirtine maleate or oxybutynin hydrochloride were suspended in hydroxyethylcellulose (0.5%) in demineralised water. The substances were ground in a mortar with pistil. The suspensions were placed on a magnetic stirrer before and during dosing procedures. The substances were freshly prepared in the morning and applied intraduodenally in a volume of 0.4 ml/100 g body weight. Control rats received hydroxyethylcellulose (0.5%) i.d.
The filling material, consisting of small globules, was ground in a mortar with pistil. Thereafter the grounded material was suspended in hydroxyethylcellulose (0.5%) in demineralised water. The suspensions were placed on a magnetic stirrer before and during dosing procedures for 10 minutes. The suspensions were freshly prepared in the morning and applied intraduodenally in a volume of 0.4 ml/100 g body weight to rats. Control rats received the same amount of hydroxyethylcellulose (0.5%) i.d.
The continuous registration lasted 1 hr. […] The frequency was evaluated for 10 min before (baseline) and within the observation period in intervals of 10 minutes starting 5, 20, 35 and 50 min after drug administration. For intraduodenal dosing, drugs were administered via a duodenal polyethylene tube to animals in aqueous suspension of 0.5% hydroxyethylcellulose.

Haffner test in mice = details: p.o.; cited from earlier work
[3] = tested on: mean arterial blood pressure; test: mean arterial blood pressure recorded in the urethane anaesthetised rats of the bladder model
Method: The body temperature was maintained at 37° C. by means of an heated small operating table and 2 red light heating lamps. The left carotid artery was prepared and a catheter for continuous blood pressure measurement was inserted and connected to a Statham pressure transducer (Model P23 Db) and connected with a computer-controlled physiological recorder (PMS PR 800, Mumed Systems Ltd London, GB).
For intraduodenal drug administration a polyethylene catheter was inserted into the upper part of the duodenum, about 5 cm downwards from the pylorus and fixed with a purse-string suture. Bilateral ureters were ligated proximally to the bladder to prevent the bladder filling with urine. Urine of the kidneys was drained onto cotton swabs within the abdomen. The urinary bladder was catheterised via the urethra by use of PE 50 polyethylene tubing filled with physiological saline and secured in place by a ligature at the lower part of the urethra. Using a “T”-connector, the bladder catheter was connected to a Statham pressure transducer (Model P23 Db) connected with the physiological recorder (PMS PR 800) to measure intravesicular pressure and to a Infusion pump (TSE, FRG). Continuous recordings of intravesicular pressure and arterial blood pressure were captured onto a 4 channel Linearcorder WR3310 (Western Graphtec, Inc., USA). The experiment was started infusing (0.05 ml/min) the bladder with warmed saline (37-38° C.) to evoke rhythmic bladder contractions by means an infusion pump up to a maximal volume of 1.0 ml. The infusion is stopped after reaching the final volume or with the start of rhythmic bladder contractions.

[4] = tested on: analgesic effect in rodents; details: p.o.; cited from earlier work
[5] = tested on: isolated organ strips of rat bladder; test: isolated organ strips of rat bladder contracted with potassium chloride (40 mM); details: read-out: IC50, concentration needed to counteract the contractile response of potassium chloride by 50%, isolated organ bath
Method: Flupirtine was also tested in an in vitro model of detrusor muscle activity. In this model, isolated organ strips of rat bladder was introduced in an isolated organ bath system. […] In this model, flupirtine did show some activity, but the concentration needed to relax the bladder strip was rather high. […] Direct effects on the bladder wall may be of limited relevance for the pharmacological effect. Indeed, this is in line with the observation that the contraction force of the detrusor in above mentioned in vivo models was not influenced at doses which clearly had pharmacological effects on micturation frequency.

[6] = tested on: bladder instability after partial ligation of the proximal urethra; test: bladder hyperactivity/detrusor instability induced by chronic partial outflow obstruction; format: in vivo, rats; details: cystometry, 6 weeks after partial ligation
Excerpt: A different model of bladder hyperactivity/detrusor instability induced by chronic partial outflow obstruction is also useful to evaluate the efficacy of a compound. Partial obstruction is achieved using partial ligation of the proximal urethra in rats. […] This can be recorded using cystometry. This model more closely resembles the situation during prostate hyperplasia and other diseases resulting in outflow obstruction. Flupirtine is also active in this model.

[7] = 0.1 mg/kg i.d. single dose, group mean
[8] = 0.1 mg/kg i.d. single dose, group mean, listed as Flupirtine maleate
[9] = 1.0 mg/kg i.d. single dose, group mean
[10] = 3.0 mg/kg i.d. single dose, group mean
[11] = 10 mg/kg i.d. single dose, group mean

## CCOC(=O)Nc1ccc(NCc2ccc(F)cc2)nc1N [flupirtine maleate, [(2-Amino-6-(4-fluorophenyl)-methyl-amino-3-pyridinyl)-carbamicacid ethylester maleate]]
[1]
  ED50, Randall-Selitto test: 39 mg/kg p.o.
[2]; 0.1 mg/kg i.d. single dose
  block X/n (animals with blockade of bladder contraction): 2/3
  block, blockade duration (group, min-max): 4 to 8 min
[2]; [7]
  amplitude, change in percent from base value (Δ %): −9.0%
  frequency, change in percent from base value (Δ %): +3.4%
[2]; [8]
  amplitude, change in percent from base value (Δ %): No effect
  frequency, change in percent from base value (Δ %): No effect
[2]; 0.1 mg/kg i.d. single dose, listed as Flupirtine maleate
  block X/n (animals with blockade of bladder contraction): 2 out of 3
[2]; 0.1 mg/kg i.d.
  presence/absence of bladder contractions (block grade), individual animal: no block; also recorded: (+) (+ or (+) = contractions abolished during 5-10 min time period)
  duration of block, individual animal: ≤ 4 min and ≤ 8 min
  number of episodes of block per animal: 1
[2]; 0.1 mg/kg i.d., listed as Flupirtine maleate
  duration of block, individual animal: 4 min and 8 min
[2]; 1.0 mg/kg i.d. single dose
  block X/n (animals with blockade of bladder contraction): 2 out of 3 and 2/3
  block, blockade duration (group, min-max): 4 to 18 min
[2]; [9]
  frequency Post (20-60 min), mean: 7.0-7.0 n/10 min
  frequency, change in percent from base value (Δ %): −8.7%
[2]; 1.0 mg/kg i.d.
  presence/absence of bladder contractions (block grade), individual animal: no block; also recorded: + (+ or (+) = contractions abolished during 5-10 min time period); also recorded: (+) (+ or (+) = contractions abolished during 5-10 min time period)
  decrease in frequency, individual animal: 17% and 23% and without influence and frequency by 17% and frequency by 23%
  duration of block, individual animal: 4 to 5 min and 16 min
  number of episodes of block per animal: 1 and 2
[2]; 3.0 mg/kg i.d. single dose
  block X/n (animals with blockade of bladder contraction): all three and 3/3
  block, blockade duration (group, min-max): 5 to 14 min
[2]; [10]
  amplitude Post (30-60 min), mean: 26.3-26.3 mm Hg
  frequency, change in percent from base value (Δ %): −40%
[2]; 3.0 mg/kg i.d.
  presence/absence of bladder contractions (block grade), individual animal: ++ (++ = contractions abolished during 10-30 min time period); also recorded: (+) (+ or (+) = contractions abolished during 5-10 min time period); also recorded: + (+ or (+) = contractions abolished during 5-10 min time period)
  decrease in frequency, individual animal: frequency by 29%; also recorded: by 50%; also recorded: frequency by 41%
  duration of block, individual animal: 14 min and block, 6 min block, starting and ≤ 5 min and 8 min
[2]; 3 mg/kg i.d.
  mean voiding frequency decreased by: 40%
[2]; 10 mg/kg i.d.
  animals with voiding contractions abolished over the whole observation period: 1/3
  presence/absence of bladder contractions (block grade), individual animal: ++ (++ = contractions abolished during 10-30 min time period); also recorded: +++ (+++ = contractions abolished during 30-60 min time period)
  mean voiding frequency decreased by: 57%
  decrease in frequency, individual animal: frequency by 68%; also recorded: in frequency by 87%; also recorded: block decrease in frequency by 57%
  duration of block, individual animal: 26 min and 29 min and 55 min and 39 min
[2]; 10 mg/kg i.d. single dose
  block X/n (animals with blockade of bladder contraction): 3/3
  block, blockade duration (group, min-max): 26 to 56 min
[2]; [11]
  amplitude, change in percent from base value (Δ %): −26%
  frequency, change in percent from base value (Δ %): −57%
[2]; 10 mg/kg i.d., reduction
  mean pressure peaks of the amplitude diminished/reduced by: 26%
[2]; rat, in vivo
  doses with therapeutic effect in the model volume-induced contractions in urinary bladder: 1-3 mg/kg p.o.
Haffner test in mice
  ED50, analgesic effect in the Haffner test: 28 mg/kg p.o.
[3]; [7]
  mean BP, change in percent from base value (Δ %): −4.7%
[3]; [9]
  mean BP, change in percent from base value (Δ %): −6.9%
[3]; [10]
  mean BP, change in percent from base value (Δ %): −12%
[3]; [11]
  mean BP Post (30-60 min), mean: 79.3-83.3 mm Hg
[3]; 10 mg/kg i.d., decrease
  mean arterial blood pressure decreased by: 11%
[4]
  doses of first analgesic efficacy: 25-50 mg/kg p.o.

## CCOC(=O)Nc1ccc(NCc2ccc(F)cc2)nc1N [flupirtine, 2-amino-3-carbethoxyamino-6-(4-fluorobenzylamino)-pyridine]
[2]; compared with analgesic ED50 values
  fold higher activity in the bladder model than in the analgesia tests: 3-10 fold
[2]; intraduodenal
  intraduodenal dose at which the first effects became visible: 3 mg/kg
[3]; summary over the doses tested
  effect on peripheral blood pressure: not cause any effect
[5]
  IC50: 7.5 µM
[6]
  activity in the chronic partial outflow obstruction model: active
